The record followed here is PMC9412534, “Diindolylmethane Derivatives: New Selective Blockers for T-Type Calcium Channels” (Membranes, 2022).

As a reminder, the IC50 is the concentration that inhibits the measured activity by half.

Entries after “also recorded” stand apart in the source; their conditions may differ.

One test addresses T1, CaV2.2 (Homo sapiens, UniProt Q00975).
T1 construct: endogenous in cells; host or cells: SH-SY5Y human neuroblastoma cells
In words: HVA N-type calcium channel FLIPR assay in SH-SY5Y cells. In kind it is cell-based. The conditions noted are these: 10 µM nifedipine present, n = 3, read-out: IC50 CaV2.2 (HVA CaVs). The protocol: (§1) The human embryonic kidney 293 (HEK 293) cell lines (from Emmanuel Bourinet, Montpellier, France) stably expressing CaV3.2 or CaV3.3 were cultured under 5% carbon dioxide at 37 °C in Dulbecco’s Modified Eagle Medium (DMEM) Glutamax (Gibco, Life Technologies, Carlsbad, CA, USA) supplemented with 10% (v/v) fetal bovine serum (FBS), 100 U/mL penicillin, 100 μg/mL streptomycin (Gibco, Life Technologies, Carlsbad, CA, USA), and 750 μg/mL geneticin (G418) (Gibco, Life Technologies). The Chinese Hamster Ovary (CHO) cell lines (Emmanuel Bourinet, Montpellier, France) expressing CaV3.1 were cultured under 5% carbon dioxide at 37 °C in Alpha Minimum Essential Media (MEM) Glutamax (Gibco, Life Technologies), supplemented with 10% (v/v) fetal bovine serum (FBS) and 300 μg/mL geneticin (G418) (Gibco, Life Technologies). The human neuroblastoma SH-SY5Y cells (Victor Diaz, Goettingen, Germany) were cultured under 5% carbon dioxide at 37 °C in RPMI 1640 antibiotic-free medium (Invitrogen, Carlsbad, CA, USA), supplemented with 15% FBS and 2 mM GlutaMAX™ (Invitrogen). D-PBS (Gibco, Life Technologies) was used to wash the cells, and 0.25% Trypsin-EDTA (Gibco, Life Technologies) was used to detach cells from the flask surface. They were split in a ratio of 1:5 (ideally 1000 cells/cm^2) when they reached 70–80% confluence (every 2–3 days). Transiently transfected CaV3.1 HEK293 T cells were used in FLIPR Assays. HEK 293 T cells were cultured under 5% carbon dioxide at 37 °C in DMEM supplemented with 10% (v/v) FBS. D-PBS was used to wash the cells, and 0.25% Trypsin-EDTA was used to detach cells from the flask surface. The cells were split and seeded at 6 million cells per T175 flask, to reach 70–80% confluence after 24 h. The next day, 12 μg DNA of human CaV3.1 was incubated in 900 μL serum-free DMEM with 36 μL FuGENE HD transfection reagent (Promega Corporation, Madison, WI, USA) (1:3 DNA/Fugene ratio) for 20 min, and then the mixture was added into the cell flask slowly, drop by drop. After the transfection, the cells were cultured under 5% carbon dioxide at 37 °C for 24 h and then moved to a 28 °C incubator.
(§2) SH-SY5Y cells were seeded into 384-well black wall clear bottom plates at a density of 15,000 cells per well, resulting in 90–95% confluence after 24 h. The media were then removed from the wells and replaced with 20 μL of 10% calcium 4 dye (Molecular Devices) in physiological salt solution (PSS) (containing 5.9 mM KCl, 1.4 mM MgCl2, 10 mM HEPES, 1.2 mM NaH2 PO4, 5 mM NaHCO3, 140 mM NaCl, 11.5 mM glucose, and 1.8 mM CaCl2, pH 7.4) with 0.1% BSA. As reported, for N-type calcium channel FLIPR assays the cells were pre-incubated with 10 µM nifedipine added in the dye to ensure full inhibition of L-type calcium responses. For L-type calcium channel FLIPR assays, the cells were pre-incubated with 1 µM CVID added in the dye to ensure full inhibition of N-type calcium responses. Positive control on the first reagent plate contained 15 μL of PSS (0.1% BSA), whereas PSS (0.1% BSA) containing 1 µM CVID and 10 µM nifedipine (final concentration) was used as a negative control. The fluorescence readings were recorded and converted as described previously, and agonist containing 90 mM KCl + 5 mM CaCl2 was used in the second addition.

The test system of a further test is CaV1. In words: HVA L-type calcium channel FLIPR assay in SH-SY5Y cells. In kind it is cell-based, human. The conditions noted are these: 1 µM CVID present, n = 3, read-out: IC50 CaV1 (HVA CaVs). Here is the method: as §1, §2
For test [1], the target named is T2, recombinant hCaV3.2 channels (Homo sapiens, UniProt O95180).
T2 construct: the only CaV3.2-expressing cells described
Put plainly: Whole-cell patch-clamp (QPatch), CaV3.2. In kind it is cell-based. Particulars: for extent of block of CaV3.2 whole-cell inward Ca2+ current: QPatch; for IC50: whole-cell current, holding potential −90 mV, n = 3–5. Here is the method:
as §1
Whole-cell patch-clamp experiments were performed on an automated electrophysiology platform QPatch 16 X (Sophion Bioscience A/S, Ballerup, Denmark) in single-hole configuration using 16-channel planar patch chip QPlates (Sophion Bioscience A/S). The extracellular recording solution contained, in mM: TEACl 157, MgCl2 0.5, CaCl2 5, and HEPES 10; pH 7.4 adjusted with TEAOH; and osmolarity 320 mOsm. The intracellular pipette solution contained, in mM: CsF 140, EGTA 1, HEPES 10, and NaCl 10; pH 7.2 adjusted with CsOH; and osmolarity 325 mOsm. Compounds were diluted in extracellular recording solution with 0.1% BSA at the concentrations stated (DMSO ≤ 0.1%), and the effects of compounds were compared to the control (extracellular solution with 0.1% BSA) parameters within the same cell. Compounds’ incubation time varied from two (for the highest concentration) to five (for the lowest concentration) minutes by applying the voltage protocol 10–30 times at 10 s intervals to ensure steady-state inhibition was achieved. The effects of compounds were obtained using 200 ms voltage steps to peak potential from a holding potential of −90 mV. Current–voltage (I–V) relationships were obtained by holding the cells at a potential of −100 mV before applying 50 ms pulses to potentials from −75 to +50 mV every 5 s in 5 mV increments. […]
In general terms: In patch-clamp work, channel activity is measured electrically.

T1 sequence (Q00975 whole entry): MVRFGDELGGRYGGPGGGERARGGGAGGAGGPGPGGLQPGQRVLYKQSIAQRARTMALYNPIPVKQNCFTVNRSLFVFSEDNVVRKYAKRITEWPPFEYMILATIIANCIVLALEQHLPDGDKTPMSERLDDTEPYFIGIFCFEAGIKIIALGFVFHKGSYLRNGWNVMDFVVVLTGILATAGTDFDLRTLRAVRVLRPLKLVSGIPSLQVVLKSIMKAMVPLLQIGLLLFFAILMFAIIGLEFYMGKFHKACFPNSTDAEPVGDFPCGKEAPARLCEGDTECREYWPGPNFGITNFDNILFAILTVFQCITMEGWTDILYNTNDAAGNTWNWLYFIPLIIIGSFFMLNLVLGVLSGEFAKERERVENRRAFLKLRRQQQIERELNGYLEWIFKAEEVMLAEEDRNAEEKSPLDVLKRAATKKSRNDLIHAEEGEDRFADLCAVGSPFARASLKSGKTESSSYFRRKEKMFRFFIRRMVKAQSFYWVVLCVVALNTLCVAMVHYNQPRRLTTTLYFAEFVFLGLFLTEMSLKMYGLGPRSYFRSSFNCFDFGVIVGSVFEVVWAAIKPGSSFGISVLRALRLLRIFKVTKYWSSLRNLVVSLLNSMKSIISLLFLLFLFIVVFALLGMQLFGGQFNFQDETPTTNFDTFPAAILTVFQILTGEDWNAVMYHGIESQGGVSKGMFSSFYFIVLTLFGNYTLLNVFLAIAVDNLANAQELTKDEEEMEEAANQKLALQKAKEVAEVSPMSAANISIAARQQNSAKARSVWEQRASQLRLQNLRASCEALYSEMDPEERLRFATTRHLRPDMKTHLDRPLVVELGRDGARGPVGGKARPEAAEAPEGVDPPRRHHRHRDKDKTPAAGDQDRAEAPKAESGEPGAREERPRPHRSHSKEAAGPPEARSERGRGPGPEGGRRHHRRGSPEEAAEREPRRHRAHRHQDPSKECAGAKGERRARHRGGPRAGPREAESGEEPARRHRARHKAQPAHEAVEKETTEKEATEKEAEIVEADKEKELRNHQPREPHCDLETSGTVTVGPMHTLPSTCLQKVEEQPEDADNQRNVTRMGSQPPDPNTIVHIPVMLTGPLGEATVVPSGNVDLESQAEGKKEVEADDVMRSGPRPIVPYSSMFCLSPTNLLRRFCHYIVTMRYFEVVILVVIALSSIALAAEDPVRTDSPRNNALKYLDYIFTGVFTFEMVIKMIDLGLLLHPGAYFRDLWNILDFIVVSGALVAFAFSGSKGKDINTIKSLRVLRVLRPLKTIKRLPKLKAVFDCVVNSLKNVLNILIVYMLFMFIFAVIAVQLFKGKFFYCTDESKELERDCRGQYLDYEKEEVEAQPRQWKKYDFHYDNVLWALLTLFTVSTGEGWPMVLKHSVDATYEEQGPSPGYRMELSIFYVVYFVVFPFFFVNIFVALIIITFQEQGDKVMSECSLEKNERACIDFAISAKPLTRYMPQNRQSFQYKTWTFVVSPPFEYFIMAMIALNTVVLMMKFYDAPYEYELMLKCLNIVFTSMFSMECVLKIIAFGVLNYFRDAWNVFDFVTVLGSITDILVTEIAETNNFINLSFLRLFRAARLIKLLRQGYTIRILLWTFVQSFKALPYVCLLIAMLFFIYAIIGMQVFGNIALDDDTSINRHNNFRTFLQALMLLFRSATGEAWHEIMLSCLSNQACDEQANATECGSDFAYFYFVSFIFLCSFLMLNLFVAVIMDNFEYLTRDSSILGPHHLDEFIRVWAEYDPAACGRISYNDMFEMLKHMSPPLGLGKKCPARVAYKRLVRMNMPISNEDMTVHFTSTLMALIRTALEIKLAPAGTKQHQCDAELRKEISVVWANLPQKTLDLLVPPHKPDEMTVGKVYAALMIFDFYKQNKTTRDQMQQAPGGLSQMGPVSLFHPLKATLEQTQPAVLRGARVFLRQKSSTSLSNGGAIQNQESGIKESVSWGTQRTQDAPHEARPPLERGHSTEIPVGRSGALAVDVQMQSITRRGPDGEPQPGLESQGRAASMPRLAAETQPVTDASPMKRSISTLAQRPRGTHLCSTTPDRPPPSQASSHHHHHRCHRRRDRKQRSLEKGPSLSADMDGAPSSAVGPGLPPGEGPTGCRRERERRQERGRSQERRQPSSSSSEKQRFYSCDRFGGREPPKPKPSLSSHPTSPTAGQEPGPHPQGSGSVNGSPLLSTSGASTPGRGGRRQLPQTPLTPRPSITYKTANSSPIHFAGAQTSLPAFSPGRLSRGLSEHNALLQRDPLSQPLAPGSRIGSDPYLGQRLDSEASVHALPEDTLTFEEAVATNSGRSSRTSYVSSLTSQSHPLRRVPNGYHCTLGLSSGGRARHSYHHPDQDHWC
T1 sequence (P54289 25-956 partner limits assumed): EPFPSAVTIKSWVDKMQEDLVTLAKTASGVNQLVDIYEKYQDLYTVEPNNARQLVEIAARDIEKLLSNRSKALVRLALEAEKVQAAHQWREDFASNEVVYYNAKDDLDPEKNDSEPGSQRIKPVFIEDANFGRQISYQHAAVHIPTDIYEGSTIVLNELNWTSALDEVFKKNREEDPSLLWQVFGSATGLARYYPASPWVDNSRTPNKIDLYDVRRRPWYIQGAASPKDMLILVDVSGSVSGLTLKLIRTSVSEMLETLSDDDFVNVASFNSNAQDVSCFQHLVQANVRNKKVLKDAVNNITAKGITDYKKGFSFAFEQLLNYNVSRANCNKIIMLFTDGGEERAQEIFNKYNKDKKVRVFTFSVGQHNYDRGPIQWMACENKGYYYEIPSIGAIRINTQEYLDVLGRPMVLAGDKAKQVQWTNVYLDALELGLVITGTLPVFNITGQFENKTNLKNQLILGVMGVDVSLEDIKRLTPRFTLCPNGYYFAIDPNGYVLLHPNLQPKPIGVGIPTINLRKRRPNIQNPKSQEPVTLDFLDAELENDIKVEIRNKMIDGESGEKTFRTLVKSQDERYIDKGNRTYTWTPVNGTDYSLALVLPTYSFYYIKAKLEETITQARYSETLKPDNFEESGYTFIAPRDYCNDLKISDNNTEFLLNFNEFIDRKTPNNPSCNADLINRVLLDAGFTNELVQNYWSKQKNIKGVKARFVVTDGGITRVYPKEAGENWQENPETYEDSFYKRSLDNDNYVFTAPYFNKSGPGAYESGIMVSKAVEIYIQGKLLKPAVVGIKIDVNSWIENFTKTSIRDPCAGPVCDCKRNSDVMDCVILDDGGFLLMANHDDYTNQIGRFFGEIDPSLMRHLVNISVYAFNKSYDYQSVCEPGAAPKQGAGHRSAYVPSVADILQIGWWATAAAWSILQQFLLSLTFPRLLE
T1 sequence (P54289 957-1103 partner limits assumed): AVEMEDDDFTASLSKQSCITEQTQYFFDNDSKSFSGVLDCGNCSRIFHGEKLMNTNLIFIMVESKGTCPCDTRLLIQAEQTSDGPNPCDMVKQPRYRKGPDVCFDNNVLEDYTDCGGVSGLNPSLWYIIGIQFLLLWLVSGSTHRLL
T1 sequence (P54284 whole entry partner): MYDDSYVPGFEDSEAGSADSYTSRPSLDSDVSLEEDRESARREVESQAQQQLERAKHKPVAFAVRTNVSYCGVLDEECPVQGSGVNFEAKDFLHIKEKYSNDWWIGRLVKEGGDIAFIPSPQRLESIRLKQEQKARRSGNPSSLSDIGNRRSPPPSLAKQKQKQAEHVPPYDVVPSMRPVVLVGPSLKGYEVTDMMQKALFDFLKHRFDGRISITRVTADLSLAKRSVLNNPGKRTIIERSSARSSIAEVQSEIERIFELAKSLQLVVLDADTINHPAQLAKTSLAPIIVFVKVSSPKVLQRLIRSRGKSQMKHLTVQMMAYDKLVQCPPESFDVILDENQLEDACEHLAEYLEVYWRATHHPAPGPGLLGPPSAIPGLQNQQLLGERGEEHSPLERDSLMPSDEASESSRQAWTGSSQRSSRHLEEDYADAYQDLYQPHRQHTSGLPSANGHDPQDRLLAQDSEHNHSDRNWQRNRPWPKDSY

In the case of `O=C(c1cn(Cc2ccccc2)c2ccccc12)c1cn(Cc2ccccc2)c2ccccc12` [IX, bis(1-benzyl-1H-indol-3-yl)methanone], the IC50 on CaV2.2 was 82 ± 5.3 µM; with CaV1, 48 ± 2.79 µM; in test [1], 2.97 ± 0.29 µM. Moreover, the “extent of block of CaV3.2 whole-cell inward Ca2+ current” value in test [1] is “partially blocked; also recorded: only partial inhibition”.

`O=C(c1c[nH]c2ccccc12)c1c[nH]c2ccccc12` [DIM-one, 3,3′-diindolylmethanone]: the half-inhibitory concentration (IC50) was 119 ± 6.51 µM at CaV2.2, 61 ± 3.99 µM in the test on CaV1 and roughly 50 µM in test [1]. In test [1], the “extent of block of CaV3.2 whole-cell inward Ca2+ current” value is on record as “poor inhibition”.

`O=C(c1c[nH]c2cc(Br)ccc12)c1c[nH]c2cc(Br)ccc12` [IV]: the values for the IC50 at CaV2.2 and in the test with CaV1 were greater than 200 µM and 38.8 ± 5.01 µM, respectively.

For the compound `c1ccc2c(Cc3c[nH]c4ccccc34)c[nH]c2c1` [DIM, 3,3′-diindolylmethane, reference compound], the values for the IC50 (at CaV2.2; in the test on CaV1; in test [1]) were 56.7 ± 2.61 µM, 68.6 ± 6.65 µM and 21.1 ± 1.19 µM, respectively.
